Molecular target: Indoleamine 2,3-dioxygenase 1 (Homo sapiens, UniProt P14902)
Assay: Inhibition of human recombinant IDO1 using L-Trp as substrate assessed as kynurenine level after 30 mins

Indoleamine 2,3-dioxygenase 1, sequence (P14902 whole entry): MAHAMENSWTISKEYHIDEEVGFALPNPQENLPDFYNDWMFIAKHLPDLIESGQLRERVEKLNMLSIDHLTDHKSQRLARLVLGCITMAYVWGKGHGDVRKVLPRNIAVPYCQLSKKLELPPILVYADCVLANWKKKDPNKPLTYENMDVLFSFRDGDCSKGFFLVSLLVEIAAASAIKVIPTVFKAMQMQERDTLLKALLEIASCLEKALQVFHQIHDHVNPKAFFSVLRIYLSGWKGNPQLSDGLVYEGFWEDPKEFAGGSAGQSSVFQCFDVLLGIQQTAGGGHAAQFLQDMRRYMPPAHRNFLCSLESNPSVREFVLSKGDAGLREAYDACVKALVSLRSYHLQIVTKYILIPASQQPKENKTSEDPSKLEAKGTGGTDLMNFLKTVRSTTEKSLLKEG

Row | IC50 [µM] | SMILES
1 | 5.6 | COc1ccc(C2CN=C3C(=O)c4ccn(S(=O)(=O)c5ccc(C)cc5)c4C(=O)C32)cc1 (configuration not stated)
2 | 5.6 | COc1ccc(C2CN=C3C(=O)c4c(CCN)cn(S(=O)(=O)c5ccc(C)cc5)c4C(=O)C32)cc1 (configuration not stated)
